Measured values from EP0318859A2, “N-substituted mercaptopropanamide derivatives” (Dainippon Pharmaceutical Co., Ltd., priority 1987, dated 1989).

Columns and labels:
[1] = test system: Female Std:ddy mice; test: Analgesic activity (mouse phenylquinone writhing test); type: in vivo; conditions: po, 30 minutes before i.p. phenylquinone, reduction in writhes greater than 50 % of vehicle control = effective, Litchfield and Wilcoxon, read-out: ED₅₀
Procedure: (1) Analgesic activity (mouse phenylquinone writhing test)
Female Std:ddy mice (weighing 18 - 22 g) were used. Each animal was given intraperitoneally 10 ml/kg of 0.03 % phenylquinone in 5 % aqueous ethanol, and the number of writhes was counted for 15 minutes, beginning 5 minutes after the injection of phenylquinone. Test compounds, suspended or dissolved in 0.5 % gum tragacanth aqueous solution, were given orally 30 minutes before the injection of phenylquinone. A reduction in writhes counts greater than 50 % of the vehicle control value was considered to be effective. The ED₅₀-value was calculated from the effective rate according to the method of Litchfield and Wilcoxon.

[2] = test system: enkephalinase; test: Enkephalinase inhibitory activity in vivo (potentiation of the analgesic activity of DAME, tail pressure pain); conditions: p.o., 30 minutes before intracisternal DAME; pressure pain threshold measured 5 minutes after DAME; male Std:ddy mice
Procedure: (2) Enkephalinase inhibitory activity in vivo
(Potentiation of the analgesic activity of DAME)
Pressure pain was induced by pressing the tail of male Std:ddy mice (weighing 20 - 26 g) using an apparatus for pressure measurement. The pressure pain threshold (biting response) was measured as mm. Test compound, dissolved or suspended in 0.5 % gum tragacanth aqueous solution, was given orally 30 minutes before intracisternaly administration of D-Ala²-Met⁵-enkephalin (DAME). Five minutes after administration of DAME, the pressure pain threshold was measured, and the potentiation activity of test compounds on the analgesic effect of DAME was tested.

[3] = molecular target: T1, enkephalinase (Rattus norvegicus, UniProt P07861); test: Enkephalinase inhibitory activity in vitro ([³H]-leucine-enkephalin degradation); type: biochemical, rats; conditions: rat striatum enkephalinase; substrate [³H]-leucine-enkephalin 20 nM; 1 hour at 37°C; read-out: IC₅₀
T1 construct: Male Std:Wistar rats were decapitated and the striata were removed; from tissue; host or cells: rat striatum (membrane pellet, solubilised with 1 % Triton X-100, DEAE-cellulose fraction)
T1 sequence (P07861 1-750): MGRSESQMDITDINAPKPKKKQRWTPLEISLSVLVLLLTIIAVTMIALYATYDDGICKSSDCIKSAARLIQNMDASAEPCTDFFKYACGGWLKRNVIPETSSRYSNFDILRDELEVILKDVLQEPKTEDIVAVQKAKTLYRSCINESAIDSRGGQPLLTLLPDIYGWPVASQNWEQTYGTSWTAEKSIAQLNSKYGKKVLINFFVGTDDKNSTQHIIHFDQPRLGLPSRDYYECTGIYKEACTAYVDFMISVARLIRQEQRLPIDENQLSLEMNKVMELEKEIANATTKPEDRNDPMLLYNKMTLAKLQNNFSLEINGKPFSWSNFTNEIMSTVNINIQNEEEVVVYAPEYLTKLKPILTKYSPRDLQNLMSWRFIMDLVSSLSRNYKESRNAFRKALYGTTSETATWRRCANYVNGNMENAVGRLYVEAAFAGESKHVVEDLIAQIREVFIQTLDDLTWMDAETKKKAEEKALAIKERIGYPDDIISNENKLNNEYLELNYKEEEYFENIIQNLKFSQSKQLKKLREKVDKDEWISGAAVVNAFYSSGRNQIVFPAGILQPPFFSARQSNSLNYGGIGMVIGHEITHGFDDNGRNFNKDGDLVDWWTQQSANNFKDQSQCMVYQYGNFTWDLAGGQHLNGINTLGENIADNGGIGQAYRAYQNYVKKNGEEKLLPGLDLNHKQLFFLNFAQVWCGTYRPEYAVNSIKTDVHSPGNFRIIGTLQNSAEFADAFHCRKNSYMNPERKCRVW
Procedure: (3) Enkephalinase inhibitory activity in vitro
Enkephalin degrading enzymes were separated according to the method described by Gorenstein and Snyder (Life Science, 25, 2065 (1979)).
Male Std:Wistar rats were decapitated and the striata were removed. These were homogenized in 30 volumes of 50 mM Tris-HCl buffer (pH 7.4) and centrifuged for 15 minutes at 1,000 x g. The supernatant was centrifuged for 15 minutes at 50,000 x g. The pellet was washed three times with the same buffer and then suspended in 15 volumes of 50 mM Tris-HCl buffer (pH 7.4) containing 1 % Triton X-100, followed by incubation for 45 minutes at 37°C. After centrifugation for 1 hour at 100,000 x g, the supernatant was applied onto DEAE-cellulose ion exchange chromatography column. The fraction containing enkephalin dipeptidylcarboxypeptidase was used as enkephalinase sample.
(ii) Measurement of inhibitory activity
After preincubation of test compound and enkephalinase for 5 minutes at 37°C, [³H]-leucine-enkephalin (substrate) was added to the reaction mixture and then the mixture was incubated for 1 hour at 37°C (final volume: 100 µl, final concentration of substarate: 20 nM). Ice-cold 0.2N HCl was added to the mixture to stop the reaction. Substrate and metabolites were separated with TLC and Porapak Q® column by the method of Vogel and Alstein [FEBS Letters, 80, 332 (1977)]. Enzyme activity was estimated from the production rate of [³H]-Tyr-Gly-Gly. The IC₅₀-value of test compounds was calculated from the inhibitory rates, estimated from the difference between the enzyme activities in the absence and the presence of test compound.

Q: How did the ED50 [1] turn out when `CC(=O)SCC(Cc1ccccc1)C(=O)Nc1cc(C)cc(C(=O)O)c1` (stereo not shown) [Example 1, 3-[(2-acetylthiomethyl-3-phenylpropionyl)amino]-5-methylbenzoic acid] was run?
A: The ED50 was 22.3 mg/kg.

Q: For `Cc1cc(NC(=O)C(CS)Cc2ccccc2)cc(C(=O)O)c1` (stereo not shown) [Example 2, 3-[(2-mercaptomethyl-3-phenylpropionyl)amino]-5-methylbenzoic acid], which ED50 [1] is on record?
A: Its ED50 is 16.6 mg/kg.

Q: What about the ED₅₀ [2] of the same compound?
A: Its ED₅₀ is 20.2 mg/kg.

Q: What about the IC50 [3] of the same compound?
A: Its IC50 is 5.4 nM.

Q: With `CC(=O)SCC(Cc1ccccc1)C(=O)Nc1cccc(C(=O)O)c1C` (stereo not shown) [Example 3, 3-[(2-acetylthiomethyl-3-phenylpropionyl)amino]-2-methylbenzoic acid] as the compound, how does the ED50 [1] read?
A: Its ED50 is 21.6 mg/kg.

Q: `Cc1c(NC(=O)C(CS)Cc2ccccc2)cccc1C(=O)O` (stereo not shown) [Example 7, 3-[(2-mercaptomethyl-3-phenylpropionyl)amino]-2-methylbenzoic acid] was tested. Which ED50 [1] did it give?
A: The ED50 was 17.9 mg/kg.

Q: What about the ED₅₀ [2] of the same compound?
A: Its ED₅₀ is 38.3 mg/kg.

Q: What about the IC50 [3] of the same compound?
A: The IC50 was 7.5 nM.

Q: With `CCc1cc(NC(=O)C(CSC(C)=O)Cc2ccccc2)cc(C(=O)O)c1` (stereo not shown) [Example 64, 3-[(2-acetylthiomethyl-3-phenylpropionyl)amino]-5-ethylbenzoic acid] as the compound, how does the ED50 [1] read?
A: Its ED50 is 11 mg/kg.

Q: And the ED₅₀ [2]?
A: Its ED₅₀ is 20.8 mg/kg.

Q: How did the ED50 [1] turn out when `CCc1cc(NC(=O)C(CS)Cc2ccccc2)cc(C(=O)O)c1` (stereo not shown) [Example 65, 3-[(2-mercaptomethyl-3-phenylpropionyl)amino]-5-ethylbenzoic acid] was run?
A: Its ED50 is 22.9 mg/kg.

Q: And the IC50 [3]?
A: The IC50 was 4.6 nM.

Q: `CC(=O)SCC(CC(C)C)C(=O)Nc1cccc(C(=O)O)c1C` (stereo not shown) [Example 175, 3-[(2-acetylthiomethyl-4-methylpentanoyl)amino]-2-methylbenzoic acid] was tested. Which ED50 [1] did it give?
A: Its ED50 is 21.1 mg/kg.

Q: How did the ED50 [1] turn out when `CC(=O)SCC(CC(C)C)C(=O)Nc1cc(C)cc(C(=O)O)c1` (stereo not shown) [Example 176, 3-[(2-acetylthiomethyl-4-methylpentanoyl)amino]-5-methylbenzoic acid] was run?
A: Its ED50 is 22.9 mg/kg.

Q: How did the ED50 [1] turn out when `CC(C)CC(CS)C(=O)Nc1cccc(C(=O)O)c1` (stereo not shown) [Example 186, 3-[(2-mercaptomethyl-4-methylpentanoyl)amino]benzoic acid] was run?
A: The ED50 was 15 mg/kg.

Q: And the IC50 [3]?
A: Its IC50 is 8.4 nM.

Q: How did the ED50 [1] turn out when `Cc1c(NC(=O)C(CS)CC(C)C)cccc1C(=O)O` (stereo not shown) [Example 187, 3-[(2-mercaptomethyl-4-methylpentanoyl)amino]-2-methylbenzoic acid] was run?
A: Its ED50 is 20.1 mg/kg.

Q: And the IC50 [3]?
A: The IC50 was 7.8 nM.

Q: `O=C(O)CNC(=O)C(CS)Cc1ccccc1` (stereo not shown) [Thiorphan, [(D,L)-2-mercaptomethyl-3-phenylpropionyl]glycine, reference compound] was tested. Which ED50 [1] did it give?
A: The ED50 was 137 mg/kg.
